The values below come from US4230854A, “Analogues of ergot alkaloids” (Societa Farmaceutici Italia S.p.A., priority 1977, dated 1980).

Data set [1] relates to lethal effect of 0.2 mg/Kg epinephrine. Description: adrenergic blockade in vivo: receptor blockade in rats, protection from the lethal effect of epinephrine. Particulars: Rattus norvegicus, iv, 5 min, dose protecting 50% of animals from the lethal effect of 0.2 mg/Kg epinephrine injected i.v. 5 min later, estimated graphically. As to the method:
(b) receptor blockade was determined in rats according to Luduena F.P. et
al. (Arch. Int. Pharmacodyn CXXII, 111, 1959). ED50 is the
graphically estimated dose of antagonist protecting 50% of animals from
the lethal effect of 0.2 mg/Kg epinephrine, injected i.v. 5 min later.

The nature of data set [2]: acute toxicity (LD50) in mice. Particulars: mouse, in vivo, iv, standard procedure. As to the method:
(c) LD50 was determined in mice according to the standard procedure.

Data set [3] has as its system spasmogenic effect of epinephrine on the isolated guineapig seminal vescicle. Description: adrenergic blockade in vitro: receptor blockade against the spasmogenic effect of epinephrine on the isolated guineapig seminal vescicle. The format is biochemical. The following applies: concentration producing 50% inhibition of the effect of epinephrine, estimated graphically. As to the method:
(a) receptors blockade was determined against the spasmogenic effect of
epinephrine on the isolated guineapig seminal vescicle according to
Brugger J. (Helv.Physiol. Acta 3, 117, 1945). Concentration producing 50%
inhibition of the effect of the agonist were estimated graphically for […]

What is called ED50 is the midpoint of the dose-response relation. As a reminder, the LD50 is the dose expected to kill half of the subjects tested. Regarding `CC(C)[C@@]1(NC(=O)[C@@H]2C[C@@H]3c4cccc5[nH]cc(c45)C[C@H]3N(C)C2)O[C@@]2(O)[C@@H]3CCCN3C(=O)[C@H](Cc3ccc(Cl)cc3)N2C1=O` [5'-debenzyl-5'-p-chlorobenzyl dihydroergocristine], the ED50 in data set [1] was 0.02 mg/kg. Also, the LD50 in data set [2] was found to be 190 mg/kg. For the same compound, in data set [3], the “adrenergic blockade In vitro IC50” value was 0.03 µg/mL.

With `CN1C[C@H](C(=O)N[C@]2(C)O[C@@]3(O)[C@@H]4CCCN4C(=O)[C@H](Cc4ccc(Cl)cc4)N3C2=O)C[C@@H]2c3cccc4[nH]cc(c34)C[C@H]21` [5'-debenzyl-5'-p-chlorobenzyl dihydroergotamine], the ED50 in data set [1] is 0.05 mg/kg. In addition, the 50% lethal dose (LD50) in data set [2] was 150 mg/kg. In data set [3], the “adrenergic blockade In vitro IC50” value was 0.02 µg/mL.

As for `CN1C[C@H](C(=O)N[C@]2(C)O[C@@]3(O)[C@@H]4CCCN4C(=O)[C@H](Cc4ccc(Cl)cc4)N3C2=O)C=C2c3cccc4[nH]cc(c34)C[C@H]21` [5'-debenzyl-5'-p-chlorobenzyl ergotamine], in data set [1], the ED50 was 0.1 mg/kg. For the same compound, in data set [2], the LD50 stood at 100 mg/kg. The “adrenergic blockade In vitro IC50” value in data set [3] is 0.03 µg/mL.

As for `CC(C)[C@@]1(NC(=O)[C@@H]2C[C@@H]3c4cccc5[nH]cc(c45)C[C@H]3N(C)C2)O[C@@]2(O)[C@@H]3CCCN3C(=O)[C@H](Cc3ccccc3)N2C1=O` [Dihydroergocristine, reference compound], in data set [1], the 50% effective dose (ED50) was 0.03 mg/kg. For the same compound, in data set [2], the LD50 was 174 mg/kg.

`CN1C[C@H](C(=O)N[C@]2(C)O[C@@]3(O)[C@@H]4CCCN4C(=O)[C@H](Cc4ccccc4)N3C2=O)C[C@@H]2c3cccc4[nH]cc(c34)C[C@H]21` [Dihydroergotamine, reference compound]: the ED50 in data set [1] is 0.08 mg/kg. Also, the LD50 in data set [2] turned out to be 118 mg/kg. In addition, the “adrenergic blockade In vitro IC50” value in data set [3] was 0.02 µg/mL.

Turning to `CN1C[C@H](C(=O)N[C@]2(C)O[C@@]3(O)[C@@H]4CCCN4C(=O)[C@H](Cc4ccccc4)N3C2=O)C=C2c3cccc4[nH]cc(c34)C[C@H]21` [Ergotamine, reference compound], the ED50 in data set [1] is 0.2 mg/kg. In data set [2], the LD50 amounted to 70 mg/kg. In data set [3], the “adrenergic blockade In vitro IC50” value is 0.07 µg/mL.
